Experimental data as given in US11459375B2, “Cyclic peptides for the treatment of Graves' disease” (advanceCOR GmbH, priority 2017, dated 2022).

Assays:
[1] = tested on: Ad-TSHR-immunized mice; experiment: clinical signs of allergic reaction during therapy of immunized mice; type: in vivo, BALB/c mice; conditions: 1 mg/kg IV, had to be treated with clemastin
Description: The study protocol used three 3-weekly immunizations (“initiation”) and followed by a “maintenance” phase with further regular 4-weekly boosts until the 9th immunisation, as described before (22). Mice were randomly assigned to therapeutic groups. Therapy (either 1 mg/kg body weight peptides or 0.9% NaCl vehicle control) was given 1 week after the 4th immunization by IV injection into a tail vein, and then continued at 4-weekly intervals, as described before for the treatment of anti-β1AR (16). The fusion protein TSHR-Fc was given IV at identical times at doses of 1 mg/kg, but had to be applied together with the histamine receptor blocker clemastin (Tavegil®) at a dose of 0.02 mg per mouse (25 g body weight) to avoid clinical symptoms of allergic reaction, which had been observed in initial pilot studies of TSHR-Fc administration in mice.

[2] = tested on: monoclonal M22 antibody binding to TSHR; experiment: direct binding/scavenging of anti-TSHR antibody M22 (modified 3rd generation titer assay); design: species or system human; conditions: 100 μg/mL test substance, M22 final concentration 10 ng/mL
Description: (§1) In FIG. 8 the effects of peptides on anti-TSHR antibody titers (A) and on cAMP stimulation in TSHR-expressing test cells (B) were studied ex vivo (anti-TSHR-antibody positive serum samples). Each measurement was carried out in 4 samples. Results are shown as % of untreated controls with standard errors of the means (SEM). Significance was tested by analysis of variance (ANOVA) between groups, followed by LSD post-hoc testing. **p<0.001, compared to controls
In order to investigate the direct binding of peptides to anti-TSHR antibodies, Roche's Cobas® assay (04388790) for ECLIA was used with minor modifications: 30 μl of the diluted monoclonal M22-Bio antibody was mixed with 30 μl diluted peptide or TSHR-Fc (final concentration of 100 μg/ml in PBS) and added to the TSHR-pre-coated microtiter plate. After an incubation step for 2 h at room temperature the protocol was continued according to the manufacturer's instructions.

[3] = tested on: TSHR-overexpressing CHO cells JP2626; experiment: ex vivo TSHR-dependent cAMP stimulation in test cells; type: cell-based, human; conditions: 100 μg/ml test substance, anti-TSHR-antibody positive samples
Description: as §1
To investigate effects on TSHR-dependent cAMP stimulation ex vivo, TSHR-overexpressing CHO cells JP2626 were prepared as described above. Then, 100 μg/ml peptide 829, peptide of the invention 836 or fusion protein TSHR-Fc were added to the JP2626 cells. After incubation for 2.5 hours at 37° C. the cAMP release in the medium was measured in duplicates by a competitive immunoassay ELISA (#EMSCAMPL, Thermo Fisher Scientific, Waltham, Mass., USA).

With “TSHR-Fc: fusion protein: first 289 amino acids of human TSH receptor (A-subunit), GGR linker and Fc portion of human IgG2” the “clinical signs of allergic reactions” value [1] was “clinical signs of allergic reactions”, the “anti-TSHR antibody titers (M22 binding to its substrate)” value [2] was “significantly reduced anti-TSHR antibody titers” and the “cAMP-stimulating potency in TSHR-expressing test cells ex vivo” value [3] was “reduction of titer and activity”.
